From US20160058787A1 (priority 2014, published 2016)

Conditions: in vivo

For sodium polystyrene sulfonate [NSPS], the “reduction of the toxicity and adverse effects of SPS” value was “over 100 folds”.
